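Protocol summary: plate cells (96-well), add compound at 5 concentrations, incubate 48 h, interpolate endpoints linearly. GI50 = concentration required for 50% inhibition of growth. TGI is the concentration that stops growth completely.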
Key:
Assay in all cases: NCI anticancer screen, dose series, 48 h
OVCAR-5 ovarian = tested on: OVCAR-5 ovarian
LOX IMVI melanoma = tested on: LOX IMVI melanoma
NCI-H226 lung = tested on: NCI-H226 lung
M14 melanoma = tested on: M14 melanoma
SK-MEL-5 melanoma = tested on: SK-MEL-5 melanoma
NCI-H23 lung = tested on: NCI-H23 lung
CCRF-CEM leukemia = tested on: CCRF-CEM leukemia
NCI-H460 lung = tested on: NCI-H460 lung
786-0 renal = tested on: 786-0 renal
UACC-62 melanoma = tested on: UACC-62 melanoma
RPMI-8226 leukemia = tested on: RPMI-8226 leukemia
NCI/ADR-RES ovarian = tested on: NCI/ADR-RES ovarian
BT-549 breast = tested on: BT-549 breast
NCI-H522 lung = tested on: NCI-H522 lung
SNB-75 CNS = tested on: SNB-75 CNS
ACHN renal = tested on: ACHN renal
UACC-257 melanoma = tested on: UACC-257 melanoma
SK-OV-3 ovarian = tested on: SK-OV-3 ovarian
MCF7 breast = tested on: MCF7 breast
SR leukemia = tested on: SR leukemia
RXF 393 renal = tested on: RXF 393 renal
MDA-N = tested on: MDA-N
HCC-2998 colon = tested on: HCC-2998 colon
SK-MEL-2 melanoma = tested on: SK-MEL-2 melanoma
HCT-116 colon = tested on: HCT-116 colon
OVCAR-8 ovarian = tested on: OVCAR-8 ovarian
MDA-MB-435 = tested on: MDA-MB-435
SNB-19 CNS = tested on: SNB-19 CNS
MDA-MB-231 breast = tested on: MDA-MB-231 breast
SW-620 colon = tested on: SW-620 colon
COLO 205 colon = tested on: COLO 205 colon
OVCAR-3 ovarian = tested on: OVCAR-3 ovarian
HCT-15 colon = tested on: HCT-15 colon
HS 578T breast = tested on: HS 578T breast
UO-31 renal = tested on: UO-31 renal
SK-MEL-28 melanoma = tested on: SK-MEL-28 melanoma
TK-10 renal = tested on: TK-10 renal
MOLT-4 leukemia = tested on: MOLT-4 leukemia
MALME-3M melanoma = tested on: MALME-3M melanoma
OVCAR-4 ovarian = tested on: OVCAR-4 ovarian
KM12 colon = tested on: KM12 colon
SF-295 CNS = tested on: SF-295 CNS
SF-539 CNS = tested on: SF-539 CNS
A549 NSCLC = tested on: A549 NSCLC
K-562 leukemia = tested on: K-562 leukemia
IGROV1 ovarian = tested on: IGROV1 ovarian
CAKI-1 renal = tested on: CAKI-1 renal
PC-3 prostate = tested on: PC-3 prostate
U251 CNS = tested on: U251 CNS
T-47D breast = tested on: T-47D breast
SN12C renal = tested on: SN12C renal
EKVX NSCLC = tested on: EKVX NSCLC
HOP-62 NSCLC = tested on: HOP-62 NSCLC
SF-268 CNS = tested on: SF-268 CNS
HT29 colon = tested on: HT29 colon
A498 renal = tested on: A498 renal
HOP-92 NSCLC = tested on: HOP-92 NSCLC
DU-145 prostate = tested on: DU-145 prostate
HL-60(TB) leukemia = tested on: HL-60(TB) leukemia

Cc1cc2c(nn1)CCc1c-2no[n+]1[O-]
TGI (OVCAR-5 ovarian): > 100 µM | TGI (LOX IMVI melanoma): > 100 µM | TGI (NCI-H226 lung): > 100 µM | TGI (M14 melanoma): > 100 µM | TGI (SK-MEL-5 melanoma): > 100 µM | TGI (NCI-H23 lung): > 100 µM | TGI (CCRF-CEM leukemia): > 100 µM | TGI (NCI-H460 lung): > 100 µM | TGI (786-0 renal): > 100 µM | TGI (UACC-62 melanoma): > 100 µM | TGI (RPMI-8226 leukemia): > 100 µM | TGI (NCI/ADR-RES ovarian): > 100 µM | TGI (BT-549 breast): > 100 µM | TGI (NCI-H522 lung): > 100 µM | TGI (SNB-75 CNS): > 100 µM | TGI (ACHN renal): > 100 µM | TGI (UACC-257 melanoma): > 100 µM | TGI (SK-OV-3 ovarian): > 100 µM | TGI (MCF7 breast): > 100 µM | TGI (SR leukemia): > 100 µM | TGI (RXF 393 renal): > 100 µM | TGI (MDA-N): > 100 µM | TGI (HCC-2998 colon): > 100 µM | TGI (SK-MEL-2 melanoma): > 100 µM | TGI (HCT-116 colon): > 100 µM | TGI (OVCAR-8 ovarian): > 100 µM | TGI (MDA-MB-435): > 100 µM | TGI (SNB-19 CNS): > 100 µM | TGI (MDA-MB-231 breast): > 100 µM | TGI (SW-620 colon): > 100 µM | TGI (COLO 205 colon): > 100 µM | TGI (OVCAR-3 ovarian): > 100 µM | TGI (HCT-15 colon): > 100 µM | TGI (HS 578T breast): > 100 µM | TGI (UO-31 renal): > 100 µM | TGI (SK-MEL-28 melanoma): > 100 µM | TGI (TK-10 renal): > 100 µM | TGI (MOLT-4 leukemia): > 100 µM | TGI (MALME-3M melanoma): > 100 µM | TGI (OVCAR-4 ovarian): > 100 µM | TGI (KM12 colon): > 100 µM | TGI (SF-295 CNS): > 100 µM | TGI (SF-539 CNS): > 100 µM | TGI (A549 NSCLC): > 100 µM | TGI (K-562 leukemia): > 100 µM | TGI (IGROV1 ovarian): > 100 µM | TGI (CAKI-1 renal): > 100 µM | TGI (PC-3 prostate): > 100 µM | TGI (U251 CNS): > 100 µM | TGI (T-47D breast): > 100 µM | TGI (SN12C renal): > 100 µM | TGI (EKVX NSCLC): > 100 µM | TGI (HOP-62 NSCLC): > 100 µM | TGI (SF-268 CNS): > 100 µM | TGI (HT29 colon): > 100 µM

Cc1cc2c3c([n+](C)c4ccc(F)cc4c3c1)-c1cc(F)ccc1N2C
GI50 (OVCAR-5 ovarian): > 100 µM | TGI (OVCAR-5 ovarian): > 100 µM | GI50 (LOX IMVI melanoma): 20.7 µM | TGI (LOX IMVI melanoma): 68.6 µM | GI50 (NCI-H226 lung): 3.41 µM | TGI (NCI-H226 lung): 57.3 µM | GI50 (M14 melanoma): 23.4 µM | TGI (M14 melanoma): 62.9 µM | GI50 (SK-MEL-5 melanoma): 5.29 µM | TGI (SK-MEL-5 melanoma): 22.1 µM | GI50 (NCI-H23 lung): 9.46 µM | TGI (NCI-H23 lung): 68.6 µM | GI50 (CCRF-CEM leukemia): 7.17 µM | TGI (CCRF-CEM leukemia): > 100 µM | GI50 (NCI-H460 lung): 15.4 µM | TGI (NCI-H460 lung): 49.5 µM | GI50 (786-0 renal): 6.24 µM | TGI (786-0 renal): > 100 µM | GI50 (RPMI-8226 leukemia): 5.13 µM | TGI (RPMI-8226 leukemia): 36.4 µM | GI50 (NCI/ADR-RES ovarian): > 100 µM | TGI (NCI/ADR-RES ovarian): > 100 µM | GI50 (BT-549 breast): 4.63 µM | TGI (BT-549 breast): 33.9 µM | GI50 (NCI-H522 lung): 6.86 µM | TGI (NCI-H522 lung): 29.4 µM | GI50 (SNB-75 CNS): 11 µM | TGI (SNB-75 CNS): 41.5 µM | GI50 (ACHN renal): 39.1 µM | TGI (ACHN renal): > 100 µM | GI50 (A498 renal): > 100 µM | TGI (A498 renal): > 100 µM | GI50 (UACC-257 melanoma): 6.2 µM | TGI (UACC-257 melanoma): 30.5 µM | GI50 (HOP-92 NSCLC): 16.4 µM | TGI (HOP-92 NSCLC): 46 µM | GI50 (SK-OV-3 ovarian): 64.7 µM | TGI (SK-OV-3 ovarian): > 100 µM | GI50 (MCF7 breast): 14.3 µM | TGI (MCF7 breast): 44.6 µM | GI50 (RXF 393 renal): > 100 µM | TGI (RXF 393 renal): > 100 µM | GI50 (MDA-N): 14.3 µM | TGI (MDA-N): > 100 µM | GI50 (HCC-2998 colon): 3.99 µM | TGI (HCC-2998 colon): 16.5 µM | GI50 (SK-MEL-2 melanoma): 10.9 µM | TGI (SK-MEL-2 melanoma): 28.6 µM | GI50 (HCT-116 colon): 19.9 µM | TGI (HCT-116 colon): > 100 µM | GI50 (OVCAR-8 ovarian): 15.2 µM | TGI (OVCAR-8 ovarian): > 100 µM | GI50 (MDA-MB-435): 13.7 µM | TGI (MDA-MB-435): 55 µM | GI50 (SNB-19 CNS): 4.13 µM | TGI (SNB-19 CNS): > 100 µM | GI50 (MDA-MB-231 breast): 24.3 µM | TGI (MDA-MB-231 breast): 85.3 µM | GI50 (SW-620 colon): 13.5 µM | TGI (SW-620 colon): > 100 µM | GI50 (COLO 205 colon): 3.5 µM | TGI (COLO 205 colon): 16.3 µM | GI50 (OVCAR-3 ovarian): 12 µM | TGI (OVCAR-3 ovarian): 61.8 µM | GI50 (HCT-15 colon): > 100 µM | TGI (HCT-15 colon): > 100 µM | GI50 (HS 578T breast): 2.4 µM | TGI (HS 578T breast): 9.77 µM | GI50 (UO-31 renal): > 100 µM | TGI (UO-31 renal): > 100 µM | GI50 (SK-MEL-28 melanoma): 9.77 µM | TGI (SK-MEL-28 melanoma): 34.9 µM | GI50 (TK-10 renal): 51.8 µM | TGI (TK-10 renal): > 100 µM | GI50 (DU-145 prostate): 17.9 µM | TGI (DU-145 prostate): > 100 µM | GI50 (MOLT-4 leukemia): 3.28 µM | TGI (MOLT-4 leukemia): > 100 µM | GI50 (MALME-3M melanoma): 4.19 µM | TGI (MALME-3M melanoma): 17.2 µM | GI50 (HL-60(TB) leukemia): 25.4 µM | TGI (HL-60(TB) leukemia): > 100 µM | GI50 (OVCAR-4 ovarian): 22.1 µM | TGI (OVCAR-4 ovarian): > 100 µM | GI50 (KM12 colon): 4.81 µM | TGI (KM12 colon): 44.1 µM | GI50 (SF-295 CNS): 7.54 µM | TGI (SF-295 CNS): > 100 µM | GI50 (SF-539 CNS): 3.28 µM | TGI (SF-539 CNS): 20.6 µM | GI50 (A549 NSCLC): 43.5 µM | TGI (A549 NSCLC): > 100 µM | GI50 (K-562 leukemia): 4.74 µM | TGI (K-562 leukemia): > 100 µM | GI50 (IGROV1 ovarian): 19.9 µM | TGI (IGROV1 ovarian): > 100 µM | GI50 (CAKI-1 renal): > 100 µM | TGI (CAKI-1 renal): > 100 µM | GI50 (PC-3 prostate): 19.9 µM | TGI (PC-3 prostate): 77.7 µM | GI50 (U251 CNS): 1.69 µM | TGI (U251 CNS): > 100 µM | GI50 (T-47D breast): 2.85 µM | TGI (T-47D breast): 84 µM | GI50 (SN12C renal): 2.34 µM | TGI (SN12C renal): 23.5 µM | GI50 (EKVX NSCLC): 62.4 µM | TGI (EKVX NSCLC): > 100 µM | GI50 (HOP-62 NSCLC): 9.84 µM | TGI (HOP-62 NSCLC): > 100 µM | GI50 (SF-268 CNS): 2.42 µM | TGI (SF-268 CNS): 14.8 µM | GI50 (HT29 colon): 33.2 µM | TGI (HT29 colon): > 100 µM

— PubChem BioAssay (NCI)
